We go through 16 compounds from patent publication US8916183B2, “Pesticidal compositions and processes related thereto” (priority 2012, dated 2014).

Common to all, as to format: in vivo
Assay [1] relates to Beet Armyworm (BAW) (Spodoptera exigua). The experiment in a line: Bioassay on beet armyworm (BAW), 128-well diet tray assay. Particulars: Spodoptera exigua; beet armyworm, 50 μg/cm^2; read-out: % Mortality BAW 50 μg/cm^2.
For assay [2], the system named is Corn Earworm (CEW) (Helicoverpa zea). The experiment in a line: Bioassay on corn earworm (CEW), 128-well diet tray assay. Particulars: Helicoverpa zea; corn earworm, 50 μg/cm^2; read-out: % Mortality CEW 50 μg/cm^2. Summed up:
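Larvae in a 128-well diet tray were held at 25° C under 14:10 light-dark for five to seven days. Percent mortality was scored per well and averaged over eight wells, then reported on a rating scale.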

Assay [3] deals with Green Peach Aphid (GPA) (Myzus persicae). The experiment in a line: Bioassay on green peach aphid (GPA), foliar spray on cabbage seedlings. To be noted: green peach aphid, 200 ppm, read-out: % Mortality GPA 200 ppm. The method in brief:
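Cabbage seedlings (2-3 true leaves), each infested a day earlier with 20-50 wingless adult and nymph GPA, were sprayed on both leaf sides to runoff, four pots per treatment. Corrected % control was calculated against solvent-check plants.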

With `Cc1cccc(C)c1-n1c(-c2cc(-c3ccc(Cl)cc3)no2)cs/c1=N\N=C\c1ccc(-c2ncn(-c3ccc(OC(F)(F)F)cc3)n2)cc1` [Compound 76C], the mortality at 50 µg/cm2 in assay [1] and in assay [2] was 50 to 100% in each case. Also, the mortality at 200 ppm in assay [3] is 0 to 80%.

Regarding `COc1cc(C)c(/N=C(/N/N=C/c2ccc(-c3ncn(-c4ccc(OC(F)(F)F)cc4)n3)cc2)SCOC(=O)C2CCCC2)c(C)c1` [Compound 43C], the mortality at 50 µg/cm2 in assay [1] and in assay [2] was 50 to 100% throughout. For the same compound, in assay [3], the mortality at 200 ppm fell in the range of 0 to 80%.

Consider `Cc1cccc(C)c1/N=C(/N/N=C/c1ccc(-c2ncn(-c3ccc(OC(F)(F)F)cc3)n2)cc1)SCc1ccc(OC(F)(F)F)cc1` [Compound 8C], for which the mortality at 50 µg/cm2 in assay [1] and in assay [2] was 50 to 100% throughout. The mortality at 200 ppm in assay [3] was in the range of 0 to 80%.

Turning to `Cc1cccc(C)c1/N=C(/N/N=C/c1ccc(-c2ncn(-c3ccc(OC(F)(F)F)cc3)n2)cc1)SCc1ccc(F)cc1F` [Compound 7C], the mortality at 50 µg/cm2 in assay [1] was 0%; in assay [2], 50 to 100%. Moreover, the mortality at 200 ppm in assay [3] was found to be 0%.

In the case of `Cc1cccc(Cl)c1N1C(=O)CS/C1=N\N=C\c1ccc(-c2ncn(-c3ccc(OC(F)(F)F)cc3)n2)cc1` [Compound 93C], the mortality at 50 µg/cm2 in assay [1] and in assay [2] was 50 to 100% each time. For the same compound, in assay [3], the mortality at 200 ppm worked out at 0%.

Take `CCC(C)c1ccccc1N1/C(=N/N=C/c2ccc(-c3ncn(-c4ccc(OC(F)(F)F)cc4)n3)cc2)SCC1(C)O` (stereo not drawn) [Compound 243C]: the mortality at 50 µg/cm2 in assay [1] and in assay [2] was 50 to 100% each time. Besides, in assay [3], the mortality at 200 ppm lay within 0 to 80%.

On to `O=C1CS/C(=N\N=C\c2ccc(-c3ncn(-c4ccc(OC(F)(F)F)cc4)n3)cc2)N1c1c(F)cccc1F` [Compound 89C], for which the mortality at 50 µg/cm2 in assay [1] and in assay [2] was 50 to 100% each time. Besides, the mortality at 200 ppm in assay [3] turned out to be 0%.

Consider `CC(C)c1ccccc1N1/C(=N/N=C/c2ccc(-c3ncn(-c4ccc(OC(F)(F)F)cc4)n3)cc2)SC(C)C1(C)O` (stereo not drawn) [Compound 257C], for which the mortality at 50 µg/cm2 in assay [1] and in assay [2] was 50 to 100% each time. Besides, the mortality at 200 ppm in assay [3] was 0%.

Turning to `Cc1cccc(C)c1-n1c(-c2ccc(OC(F)(F)F)cc2)cs/c1=N\N=Cc1ccc(-c2ncn(-c3ccc(OC(F)(F)F)cc3)n2)cc1` [Compound 78C], the mortality at 50 µg/cm2 in assay [1] and in assay [2] was 50 to 100% each time. For the same compound, the mortality at 200 ppm in assay [3] is 0 to 80%.

For `COc1ccccc1N1C(=O)CS/C1=N\N=C\c1ccc(-c2ncn(-c3ccc(OC(F)(F)F)cc3)n2)cc1` [Compound 92C], the mortality at 50 µg/cm2 in assay [1] and in assay [2] was 50 to 100% throughout. In addition, the mortality at 200 ppm in assay [3] lay within 0 to 80%.

Turning to `Cc1ncccc1N1CCCS/C1=N\N=C\c1ccc(-c2ncn(-c3ccc(OC(F)(F)F)cc3)n2)cc1` [Compound 205C], the mortality at 50 µg/cm2 in assay [1] and in assay [2] was 50 to 100% in each case. Also, in assay [3], the mortality at 200 ppm is 0 to 80%.

As to `Cc1ccccc1N1CCS/C1=N\N=C\c1ccc(-c2ncn(-c3ccc(OC(F)(F)F)cc3)n2)cc1` [Compound 141C], the mortality at 50 µg/cm2 in assay [1] and in assay [2] was 50 to 100% in each case. Further, the mortality at 200 ppm in assay [3] was 0%.

With `COc1cccc(N2CCS/C2=N\N=C\c2ccc(-c3ncn(-c4ccc(OC(F)(F)F)cc4)n3)cc2)c1` [Compound 147C], the mortality at 50 µg/cm2 in assay [1] and in assay [2] was 50 to 100% throughout. For the same compound, the mortality at 200 ppm in assay [3] is 0 to 80%.

With `Cc1cccc(C)c1/N=C(/N/N=C/c1ccc(-c2ncn(-c3ccc(OC(F)(F)F)cc3)n2)cc1)SCC(=O)NCC(N)C(=O)O` (stereo not drawn) [Compound 63C], the mortality at 50 µg/cm2 in assay [1] and in assay [2] was 50 to 100% throughout. In addition, in assay [3], the mortality at 200 ppm amounted to 0%.

Take `Cc1cccc(C)c1/N=C(/N/N=C/c1ccc(-c2ncn(-c3ccc(OC(F)(F)F)cc3)n2)cc1)SCOC(=O)C1CCCC1` [Compound 35C]: the mortality at 50 µg/cm2 in assay [1] and in assay [2] was 50 to 100% each time. The mortality at 200 ppm in assay [3] lay within 0 to 80%.

In the case of `Cc1cccc(C)c1/N=C(/N/N=C/c1ccc(-c2ncn(-c3ccc(OC(F)(F)F)cc3)n2)cc1)SCC(=O)NCCCNC(=O)OC(C)(C)C` [Compound 58C], the mortality at 50 µg/cm2 in assay [1] and in assay [2] was 50 to 100% in each case. Further, in assay [3], the mortality at 200 ppm fell in the range of 0 to 80%.
